# Data: patent US20250281449A1, “NITROGEN-CONTAINING ANALOGS OF SALINOMYCIN FOR USE IN MULTIPLE MYELOMA (MM)” (Centre National de la Recherche Scientifique, priority 2021, published 2025)
# pIC50: −log10 of the molar value.
# Tested on: XG-19
# Experiment: Cell viability assay (Cell Titer-Glo), HMCL
# Type: cell-based
# Conditions: Homo sapiens; XG-19 HMCL, 96H
# Method: The panel of 17 HMCL cell lines were incubated with increasing concentrations of Ironomycin (A), AM23 (B) or vehicle for 96H.
# HMCL cell lines were cultured for 4 days in 96-well flat-bottom microtiter plates in RPMI 1640 medium or DMEM medium, 10% or 20% FCS (control medium) in the presence of various compounds. The number of viable cells in culture was determined using the Cell Titer-Glo Luminescent Cell Viability Assay from Promega, Madison, WI, USA using a Centro LB 960 luminometer (Berthold Technologies, Bad Wildbad, Germany).
# This test is based on quantitation of the intracellular ATP present, which signals the presence of metabolically active cells. Data are expressed as the mean percentage of six replicates, normalized to the untreated control.
smiles,measurement,value
C#CCN[C@@H]1C=C[C@]2(O[C@H]([C@@H](CC)C(=O)[C@@H](C)[C@@H](O)[C@H](C)[C@@H]3O[C@@H]([C@@H](CC)C(=O)O)CC[C@@H]3C)[C@@H](C)C[C@H]2C)O[C@@]12CC[C@@](C)([C@H]1CC[C@](O)(CC)[C@H](C)O1)O2 [Ironomycin],pIC50,7.57
